{
  "source": "patent US20240050392A1",
  "about": "“COMPOSITIONS AND METHODS FOR IMPROVED TREATMENT OF PLATINUM-BASED CHEMOTHERAPEUTIC RESISTANT TUMORS” (THE REGENTS OF THE UNIVERSITY OF THE COLORADO, A BODY …, priority 2021, published 2024)",
  "key": {"[1]": {"test_system": "KU1919-GemCis and KU1919 parental cells", "test": "Drug dose response with NPEPPS knockdown or overexpression", "type": "cell-based, human"}, "[2]": {"test_system": "KU1919 and T24 cells", "test": "Intracellular carboplatin measurements with NPEPPS and LRRC8A knockdown", "type": "cell-based, human", "settings": "KU1919 and T24 parental and GemCis cells"}, "[3]": {"settings": "active form, accumulates in cells; cited from earlier work"}, "[4]": {"test_system": "KU1919, T24, and TCCSUP GemCis-resistant cells", "test": "Cell culture dose response (IncuCyte growth inhibition) of tosedostat with gemcitabine and/or cisplatin", "type": "cell-based, human", "protocol": "One feature of NPEPPS is the availability of agents that inhibit its activity. Tosedostat, an orally available M1 aminopeptidase prodrug has antileukemic activity and is readily available for use. […] Tosedostat is antiproliferative, proapoptotic, and has antiangiogenic effects. The response of the KU1919, T24, and TCCSUP GemCis-resistant cells to increasing doses of tosedostat with gemcitabine, cisplatin, and gemcitabine plus cisplatin was measured. (FIGS. 3F-3H).\nCell Line Drug Treatments. Gemcitabine (Sigma) and cisplatin (Sigma) stocks were resuspended in 0.9% saline solution and tosedostat (Sigma and BOC Sciences) was resuspended in DMSO. All stocks solutions were stored protected from light and kept frozen until use. For cell culture dose response, cells were seeded in 96-well tissue culture plates with 500-2000 cells per well depending on growth rate and duration of experiment. Cells were seeded and allowed to attach overnight followed by replacing the media with fresh, pre-warmed media just prior to treatment. Drug dilutions were performed serially and using complete media (IMDM+10% FBS) and the associated drug treatments. Growth inhibition was measured using confluence estimates over time on the IncuCyte ZOOM (Essen Bioscience) over varying amounts of time depending on each experiment. Details for timing and replicates for each experiment are included in their respective figure legends."}, "[5]": {"test_system": "bladder tumor-derived organoids", "test": "Tumor-derived organoid drug screening (alamarBlue viability, reseeding)", "type": "cell-based, human", "protocol": "Three independent organoid models derived from patients that failed between 4 to 6 cycles of neoadjuvant gemcitabine plus cisplatin chemotherapy (FIG. 10A). The organoids mimicked the morphological and genomic characteristics of the tumor from which they were derived (FIG. 10B). These organoids were treated with increasing doses of cisplatin and 20 μM of tosedostat.\nTumor-derived Organoids. Culture of the organoids. Human bladder tissue was obtained from the Erasmus MC Bladder Cancer Center, Rotterdam, the Netherlands. Bladder tumor-derived organoids from biopsies obtained through TURBT or cystectomy. Briefly, bladder tissues were washed with Advanced DMEM/F12 (Gibco) supplemented with 10 mM HEPES (Gibco), 1% GlutaMax (Gibco) and 100 μg/ml primocin (InvivoGen), henceforth Ad+++. Tissue was minced and incubated at 37° C. with the digestion solution (collagenase 2.5 mg/ml in EBSS) and isolated cells were passed through […] strainer (Falcon), washed with Ad+++ and seeded in 50 μl drops of BME (R&D system) containing 10000-15000 cells in 24 well suspension plates (Greiner). Bladder tumor organoids were cultured in a culture medium containing Ad+++ supplemented with 1×B-27 (Gibco), 1.25 mM N-acetylcysteine (Sigma), 10 mM nicotinamide, 20 μM TGFβ receptor inhibitor A83-01, 100 ng/ml recombinant human FGF10 (Peprotech), 25 ng/ml recombinant human FGF7 (Peprotech), 12.5 ng/ml recombinant human FGF2 (Peprotech), 10 μM Y27632 Rho Kinase (ROCK) Inhibitor (Sigma) and conditioned media for recombinant Rspondin (2.5% v/v), and Wnt3A (2.5% v/v). The medium was changed every three days. Organoids were passaged at a 1:3 to 1:6 ratio every 7 days using cell dissociation solution-non enzymatic (Sigma) and plated in fresh BME matrix droplets.\nDrug screening. Organoids were collected 7 days after passaging, passed through a […] strainer and 1000 organoids were seeded per well of a 48-well plate in BME matrix droplets. After 24 hours cisplatin (Sigma) resuspended in PBS was added at different concentrations (2, 10, 25, and 50 μM) with or without tosedostat (20 μM) (Tocris) resuspended in DMSO. All wells were adjusted to contain less than 0.7% DMSO. Organoids were cultured for the first 6 days in the presence of drugs followed by drug withdrawal, where organoids were grown in organoid culture media for 10 days. The entire content of the wells in different treatment groups was collected, washed and reseeded after disaggregation in fresh BME, and cultured for 6 days. Cell viability was assayed using alamarBlue (Invitrogen) according to the manufacturer's instructions after 6 days of drug incubation, 10 days of drug withdrawal, and 6 days post reseeding. Viability data was normalized using organoid wells treated with vehicle control."}},
  "data": [
    {"smiles": "Nc1ccn([C@@H]2O[C@H](CO)[C@@H](O)C2(F)F)c(=O)n1", "note": "[gemcitabine]", "values": [
      {"measurement": "effect of NPEPPS knockdown on drug response", "setting": "[1]; KU1919-GemCis cells, stable NPEPPS shRNA knockdown", "result": "not gemcitabine alone"},
      {"measurement": "effect of NPEPPS overexpression on drug response", "setting": "[1]; KU1919 parental lines overexpressing NPEPPS", "result": "not gemcitabine"}
    ]},
    {"smiles": "N.N.O=C([O-])C1(C(=O)[O-])CCC1.[Pt+2]", "note": "[carboplatin]", "values": [
      {"measurement": "NPEPPS-mediated import pattern of carboplatin compared with cisplatin", "setting": "[2]", "result": "the same patterns were found"}
    ]},
    {"smiles": "CC(C)C[C@@H](C(=O)N[C@H](C(=O)O)c1ccccc1)[C@H](O)C(=O)NO", "note": "[CHR-79888]", "values": [
      {"measurement": "membrane permeability", "setting": "[3]", "result": "poorly membrane-permeable"}
    ]},
    {"smiles": "CC(C)C[C@@H](C(=O)N[C@H](C(=O)OC1CCCC1)c1ccccc1)[C@H](O)C(=O)NO", "note": "[tosedostat]", "values": [
      {"measurement": "combined effect on cell growth", "setting": "[4]; increasing doses of tosedostat with cisplatin", "result": "strongest combined effect"},
      {"measurement": "combined effect on cell growth", "setting": "[4]; increasing doses of tosedostat with gemcitabine", "result": "little to no effect"},
      {"measurement": "combined effect on cell growth", "setting": "[4]; increasing doses of tosedostat with gemcitabine plus cisplatin", "result": "strongest combined effect"},
      {"measurement": "organoid growth", "setting": "[5]; 20 μM tosedostat in combination with 2 μM and 10 μM cisplatin", "result": "significantly decreased organoid growth"},
      {"measurement": "organoid growth", "setting": "[5]; tosedostat alone, 20 μM", "result": "minor effect on organoid growth"}
    ]}
  ]
}
